What was measured:
[1] = tested on: human fibroblasts; test: DNA content of human fibroblasts (Desaulniers method); assay type: cell-based; conditions: conc. 0.001 % w/v, compared to blank sample = 100
Procedure: G6PDH activity was determined in vitro on human fibroblasts by the enzymatic method of Okada, while the DNA content was determined by the Desaulniers method. The results of 3 series of measurements with triple determination are given in %-rel. compared to a blank sample.

[2] = tested on: glucose-6-phosphate dehydrogenase (G6PDH); test: G6PDH activity on human fibroblasts (enzymatic method of Okada); assay type: cell-based; conditions: for G6PDH after 3 d / G6PDH after 6 d: conc. 0.001 % w/v, compared to blank sample = 100
Excerpt: The enzyme glucose-6-phosphate dehydrogenase (G6PDH) catalyzes the first step of the so-called “pentose pathway”, in which an important DNA component, namely deoxyribose, is formed. Glucose 6-phosphate (G6P) is thereby converted into 6-phosphogluconate (6PG) by means of G6PDH. At the same time, the coenzyme NADP required thereby is reduced to NADPH2, which in turn is able to catalyze a large number of other biological reactions such as, for example, the recycling of glutathione or lipid synthesis. Reduced glutathione protects many enzymes which have SH groups and cells against oxidative stress, such as, for example, the action of UV. The G6PDH content is thus an important parameter for cell protection and skin renewal. G6PDH activity was determined in vitro on human fibroblasts by the enzymatic method of Okada, while the DNA content was determined by the Desaulniers method. The results of 3 series of measurements with triple determination are given in %-rel. compared to a blank sample.

[3] = tested on: human fibroblasts and human keratinocytes; test: Inhibition of apoptosis induced by a deficiency of growth factors (cell count, BrdU ELISA of cytoplasmic DNA fragments); assay type: cell-based; conditions: for Content of DNA fragments / Cell count: conc. 0.001 % w/v; for Content of DNA fragments: BrdU in cytoplasmic DNA fragments, based on a million cells, control = 100; for Cell count: medium without fetal calf serum, in comparison to the control = 100
Procedure: The ability of carnosines to prevent apoptosis induced by a deficiency of growth factors in human skin cells was studied. These tests were carried out in vitro on human fibroblasts and human keratinocytes. The human cells were cultivated in a nutrient medium (DMEM=Dulbecco minimum essential medium from Life Technologie Sarl) with 10% fetal calf serum (from Dutcher). Bromodeoxyuridine (BrdU) was added to the nutrient medium; it was incorporated into the DNA and later served for detection of the DNA fragments in the cytoplasm. After an incubation period of two days, the nutrient medium was replaced by nutrient medium (DMEM) without fetal calf serum. The active substance to be tested was added. For comparison, a cell sample without active substance to be tested was incubated.
After a further incubation period of one or two days at 37° C., the cells were recovered by trypsinization according to the method of Dunnebacke and Zitcer described in: Cell and tissue culture, Ed.: J. Paul, Churchill Livingstone, 1975, p. 226. After the trypsinization, the cells were centrifuged and counted. Then the content of BrdU in the DNA fragments from the cytoplasm was determined by means of the ELISA test (ELISA kit from Roche). The content of BrdU is a measure of the DNA fragments which have passed from the nucleus, the cell core, into the cytoplasm. The results were based on a million cells and given in percent in comparison to the control.

[4] = tested on: human fibroblasts; test: Stimulation of the synthesis of dermal macromolecules (GAG) in collagen gel containing human fibroblasts; assay type: cell-based; conditions: 0.5% by weight FCS + 0.01% by weight substance; for Area 7 days / Area 14 days / Density 14 days: collagen gel; for Density 14 days: relative density 0=clear or white, 1=black; for GAG content 7 days / GAG content 14 days: relative value of the gray stage (0=white to 255=black), perifibroblast area
Procedure: The measuring method is based on staining macromolecules in a culture of human fibroblasts which, with type I collagen, forms a collagen gel or collagen lattice fibers. Certain regions of those fibers are quantified by means of staining reagents for the proportion of the mentioned macromolecules.
For that purpose, a suspension of human fibroblasts was mixed with a solution of type I collagen (1-2 mg/ml). This mixture was incubated in a defined nutrient medium (DMEM=Dulbecco minimum essential medium, Life Technologie Sarl) comprising 0.5 or 2% by weight fetal calf serum (FCS) for 14 days at 37° C. in a 5% CO2 atmosphere in Petri dishes (5 ml per dish) with the addition of different concentrations of the plant extracts to be tested.
The kinetics of the collagen gel […] was determined 2 to 3 times per week by measuring two perpendicular diameters on each collagen gel using a microscope with an image analysis system. The size of the area is shown in cm^2 in Table 8. After incubation for 14 days, the density of the collagen gel was determined by image analysis with a light source of visible light, by comparatively analyzing different gray stages. This is a relative determination of the density (0=clear or white and 1=black), which cannot be given a unit.
After an incubation period of 7 and 14 days, biopsies (tissue samples) were taken and histological sections of the collagen gel containing human fibroblasts were obtained. The synthesis of macromolecules was analyzed and quantified by the staining of glycosaminoglycan with PAS Alcian blue, for example from SIGMA, by the periodic acid-Schiff method (PAS) described in: Mowry R W, Anal. NY Adad. Sci. 106 Art 2, 402, 1963. The stimulation of the synthesis of macromolecules was evaluated in the immediate vicinity of fibroblasts. This zone is also referred to as the “perifibroblast area”.
The “perifibroblast” secretion, or the secretion of fibroblasts into the periphery, was quantified by an image analyzer by means of a microscope. Reactive structures in the “perifibroblast area” were detected, and the different gray stages were comparatively determined. The values of the gray stages were thereby subdivided from 0=white to 255=black. These parameters are directly proportional to the intensity of the synthesis of macromolecules and thus to the GAG content of the fibroblasts.
The results of the values of these parameters are shown in Table 3 below and are to be regarded directly as representative values for the synthesis activity of the fibroblasts. The content of GAGs is described as a relative value of the gray stage.

[5] = target: pancreas elastase (Sus scrofa, UniProt P00772); test: Inhibition of elastase activity; assay type: biochemical; conditions: 0.3% by weight; 30 minutes at room temperature; relative to control = 0%
Chain of pancreas elastase (P00772 27-266): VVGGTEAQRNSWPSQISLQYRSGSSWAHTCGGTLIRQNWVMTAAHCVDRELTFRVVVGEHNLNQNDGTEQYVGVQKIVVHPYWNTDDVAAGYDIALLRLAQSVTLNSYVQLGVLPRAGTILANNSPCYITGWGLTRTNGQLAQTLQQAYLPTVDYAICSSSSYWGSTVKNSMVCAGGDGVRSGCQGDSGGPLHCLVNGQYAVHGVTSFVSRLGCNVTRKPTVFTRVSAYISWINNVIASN
Procedure: In order to determine the effectiveness of the plant extract in inhibiting the release of elastase, pancreas elastase (a serine protease) was studied and, as substrate, elastin was labeled with a chromogenic synthetic substrate. The system was incubated with the active ingredients for 30 minutes at room temperature and then, after centrifugation, the optical density of the dye at 410 nm was determined. The amount of extracts used was 0.3% by weight. The results are given relative to a control as standard (=0%); a1-antitrypsin was used as the standard.

[6] = tested on: type I collagen; test: Inhibition of the glycation of collagen (Schiff's bases, fluorescence at 430 nm); assay type: biochemical; conditions: with glucose, 21 days at 45° C.; control with glucose 100, control without glucose 46
Procedure: The suspensions were then centrifuged and the content of Schiff's bases in the supernatant liquid was determined by fluorescence measurement at 430 nm. The results are again based on the control as standards (without extract and without glucose).

[7] = Biochem. J. 264(3), p. 863-869 (1989); cited from earlier work
[8] = Membran & Cell Biol. 12(1), p. 89-99 (1998); cited from earlier work

Structure (SMILES) | G6PDH after 3 d [2] | G6PDH after 6 d [2] | Elastase inhibition [5] | DNA after 3 d [1] | DNA after 6 d [1] | Content of DNA fragments [3] | Cell count [3] | Area 7 days [4] | Area 14 days [4] | Density 14 days [4] | GAG content 7 days [4] | GAG content 14 days [4] | Inhibition of the glycation of collagen [6] | G6PDH activity (in words) [2] | apoptosis and content of free DNA fragments in the cytoplasm (in words) ([3]; human cell cultures) | capture of ROS [7] | capture of alpha-beta-unsaturated aldehydes [8]
CCCCCCOC(=O)c1ccccc1C(=O)c1ccc(N(CC)CC)cc1O [Uvinul A, 2-(4-diethylamino-2-hydroxybenzoyl)-benzoic acid hexyl ester, reference compound] | 88 %-rel. | 81 %-rel. | – | 97 %-rel. | 93 %-rel. | – | – | – | – | – | – | – | – | – | – | – | –
NCCC(=O)N[C@@H](Cc1cnc[nH]1)C(=O)O [carnosine] | – | – | – | – | – | – | – | – | – | – | – | – | – | increases the activity of G6PDH production | counteracts apoptosis | capable of capturing ROS | able to capture alpha-beta-unsaturated aldehydes
C[N+](C)(C)C[C@H](O)CC(=O)O.[Cl-] [Carnitine*HCl] | 104 %-rel. | 109 %-rel. | 28% | 106 %-rel. | 118 %-rel. | 88% | 118% | 9.9 cm2 | 5.8 cm2 | 0.25 | 11.8 | 13.3 | 65% | – | – | – | –

More lines, main results first:

G6PDH after 3 d [2] | G6PDH after 6 d [2] | Elastase inhibition [5] | Structure (SMILES) | DNA after 3 d [1] | DNA after 6 d [1] | Content of DNA fragments [3] | Cell count [3] | Area 7 days [4] | Area 14 days [4] | Density 14 days [4] | GAG content 7 days [4] | GAG content 14 days [4] | Inhibition of the glycation of collagen [6] | G6PDH activity (in words) [2] | apoptosis and content of free DNA fragments in the cytoplasm (in words) ([3]; human cell cultures) | capture of ROS [7] | capture of alpha-beta-unsaturated aldehydes [8]
105 %-rel. | 109 %-rel. | 32% | NCCC(=O)N[C@@H](Cc1cnc[nH]1)C(=O)O [L-Carnosine] | 111 %-rel. | 120 %-rel. | 85% | 129% | 10.1 cm2 | 6.0 cm2 | 0.25 | 12.1 | 15.1 | 68% | – | – | – | –
89 %-rel. | 85 %-rel. | – | CCCCC(CC)COC(=O)C(C#N)=C(c1ccccc1)c1ccccc1 (centres unmarked) [Octocrinyl, reference compound] | 95 %-rel. | 90 %-rel. | – | – | – | – | – | – | – | – | – | – | – | –
